Measurements reported in patent publication US20200179331A1, “Peptide-Artesunate Conjugates as Targeted Anti-Cancer Agents” (priority 2017, published 2020).
pIC50: −log10 of the molar value. Where two headings read alike, the source gives them in different places. Residues, ends and D or L forms follow the SMILES beside them. *: point of attachment. X1 = C[C@H]1[C@H](OC(=O)CCC(=O)*)O[C@@H]2O[C@@]3(C)CC[C@H]4[C@H](C)CC[C@@H]1[C@@]24OO3

Tests used:
[1] = reference [50]; cell line not given; read-out: IC50, anticancer ability of commonly used anticancer drugs; cited from earlier work
[2] = MTT assay, Caco-2 cells (HER2-positive)
Experimental: (§1) CCD-18 cells were maintained in Dulbecco's minimal essential medium (DMEM, ATCC) supplemented with 10% fetal bovine serum (FBS, ATCC), 100 U/ml penicillin G, and 100 μg/ml streptomycin at 37° C. in a humid atmosphere of 5% CO2 atmosphere. Caco-2 cells were maintained in Dulbecco's minimal essential medium (DMEM, ATCC) supplemented with 20% fetal bovine serum (FBS,ATCC), 100 U/ml penicillin G, and 100 μg/ml streptomycin at 37° C. in a humid atmosphere of 5% CO2 atmosphere; culture medium was replaced with a fresh medium every 2-3 days. All experiments were performed with actively growing cells in logarithmic growth phase.
(§2) The assay was carried out following a reported procedure. In brief, approximately 1,000 to 5,000 cells were plated per well in 96-well plate. The plates were incubated at 37° C. for 48 or 72 hours in a humidified, 5% CO2 atmosphere. Cells were incubated either with Artesunate or with ART-HER2 conjugate at various concentrations. To measure mitochondrial activity, a metric for cell viability, 15 μL of [3-{4, 5-dimethylthiazol-2-yl)-2, 5-diphenyltetrazolium bromide (MTT) was added to each well and incubated at 37° C. for 4 hours in a humidified, 5% CO2 atmosphere. After incubation, 100 μl of the solubilization solution/stop mix was added to each well. The blue formazan product formed by reduction of MTT by mitochondrial dehydrogenase in viable cells was then measured by absorbance at 570 nm.
(§3) The cytotoxicity of Artesunate was then investigated with two human colon cell lines, a normal colon cell line CCD-18 and a cancerous colon cell line Caco-2, using the well-established MTT assay. […] Dose-dependent assays were performed in 96-well format and IC50 values were determined by plotting the cell viability against Artesunate concentration (FIG. 11 and FIG. 12).

[3] = Dichlorofluorescein assay (reactive oxygen species formation with Fe2+); settings: for reactive oxygen species formation, DCF fluorescence: 20 μM, Fe2+ 5-25 μM, 10 μM DCFH-DA, 30 min
Experimental: The assay was carried out following a reported procedure either in presence of hydrogen peroxide, Artesunate with and without Fe2+, and ART-HER2 conjugate with and without Fe2+[43]. In this assay non-fluorescent DCFH-DA (2′, 7′-Dichlorofluorescin diacetate treated with methanol and NaOH, as described in reference 43) is converted to a fluorescent derivative, known as dichlorofluorescein (DCF), in presence of an oxidizing agent (e.g. reactive oxygen species). By quantifying the concentration of fluorescent DCF, the concentration of oxidizing agent can be determined.
Formation of free radical species from the reaction of Artesunate with […] was additionally measured by dichlorofluorescein assays. Oxidation of 2′, 7′-Dichlorofluorescin diacetate (DCFH-DA) by reactive oxygen species generates dichlorofluorescein, which is fluorescent (˜520 nm).

[4] = system: HCT116 cells; test: Sulforhodamine B (SRB) colorimetric assay, HCT116 proliferation; type: cell-based; settings: Homo sapiens, HCT-116, 96-well format, read-out: IC50, inhibition of the proliferation of HCT116 cells
Experimental: Mouse B16-F10 melanoma cancer cells and human HCT116 colon cancer cells were grown in culture respectively in DMEM medium or McCoy's 5 A medium supplemented with 10% fetal bovine serum and 5% antibiotic in a 5% CO2 atmosphere at 37° C. Cultures were divided 1:2 every 48 h to an approximate cell density of 1.2 million cells per ml and used for experiments after 24 hours of growth in culture.

[5] = system: Caco-2 cells; test: MTT assay, Caco-2 cells (HER2-positive)
Experimental: as §1, §2, §3

[6] = MTT assay, CCD-18 cells (HER2-negative normal colon); settings: human, CCD-18 cells (normal colon, HER2-negative)
Experimental: as §1
The assay was carried out following a reported procedure. In brief, approximately 1,000 to 5,000 cells were plated per well in 96-well plate. The plates were incubated at 37° C. for 48 or 72 hours in a humidified, 5% CO2 atmosphere. […] The blue formazan product formed by reduction of MTT by mitochondrial dehydrogenase in viable cells was then measured by absorbance at 570 nm.
as §3

[7] = Deoxyribose degradation assay (free radical formation with Fe2+); settings: 200 μM, Fe2+ 5-25 μM, 10 minutes
Experimental: This assay quantifies the formation of hydroxyl radicals or peroxyl radicals. The assay was carried out following a reported procedure. Briefly, 500 μL reaction volumes containing 10 mM 2-deoxyribose, 100 μM ascorbic acid, and various concentrations of Fe2+ were prepared. Degradation of 2-deoxyribose was initiated either by addition of 200 μM of hydrogen peroxide or 200 μM of Artesunate. The reaction was allowed to run for 10 minutes and then stopped by the addition of 500 μL of 10% (w/v) trichloroacetic acid (TCA) followed by 0.5 mL 1% 2-thiobarbituric acid (TBA). After heating at 80° C. for 15 minutes, the absorbance at 532 nm was measured.
To measure the concentration of free radical species generated by Artesunate reacting with Fe^2+, 2-deoxyribose degradation assays were formed (FIG. 6). Degradation of 2-deoxyribose by action of hydrogen peroxide is shown as a positive control and 2-deoxyribose alone is shown as a negative control (FIG. 6).

In the case of `N.N.O=C([O-])C1(C(=O)[O-])CCC1.[Pt+2]` [carboplatin], the pIC50 [1] is given as about 4.92.

With `CC(C)C[C@H](NC(=O)[C@H](CO)NC(=O)[C@H](Cc1ccc(O)cc1)NC(=O)[C@H](CS)NC(=O)[C@H](CS)NC(=O)[C@H](CCCCN)NC(=O)CNC(=O)[C@H](CO)NC(=O)CNC(=O)CCC(=O)O[C@@H]1O[C@@H]2O[C@@]3(C)CC[C@H]4[C@H](C)CC[C@@H]([C@H]1C)[C@@]24OO3)C(N)=O` [ART-HER2 conjugate] (X1-GSGKCCYSL-NH2) the pIC50 [2] was about 4.82 and the “free radical species formation in presence of Fe2+ (in words)” value ([3]; 2-deoxyribose degradation and dichlorofluorescein assays, increasing Fe2+) was “increases in presence of increasing levels of Fe^+”.

In the case of `O=c1[nH]cc(F)c(=O)[nH]1` [5-FU, 5-fluorouracil], the pIC50 [1] is given as about 4.82.

In the case of `C[C@H]1[C@H](OC(=O)CCC(=O)O)O[C@@H]2O[C@@]3(C)CC[C@H]4[C@H](C)CC[C@@H]1[C@@]24OO3` [Artesunate], the pIC50 [4] was about 6.20, the “fold higher toxicity against Caco-2 cells compared to CCD-18 cells” value ([5]; Caco-2) was about 5.7 fold and the pIC50 ([5]; Homo sapiens, Caco-2, read-out: IC50, cytotoxicity against Caco-2 cells) was about 6.01. The pIC50 [6] was about 5.25, the “free radical generation, 2-deoxyribose degradation (absorbance 532 nm)” value [7] was “reacts with Fe^2+ to generate free radical species that are sufficient to degrade 2-deoxyribose” and the “reactive oxygen species formation, DCF fluorescence” value [3] was “Fe^2+-dependent activation of dichlorofluorescein fluorescence”.

With `OO` [H2O2, hydrogen peroxide] the “reactive oxygen species formation, DCF fluorescence” value [3] was “Fe^2+-dependent activation of dichlorofluorescein fluorescence”.
